The results in this text go back to ChEMBL document CHEMBL1159138, “Antibacterial evaluation of novel N-Arylimino-1,2,3-dithiazoles and N-arylcyanothioformamides” (1996).

In brackets after ≈: the same amount, converted by molar mass. Activity calls are given as the source filed them.

Assay [1] has as its system Enterococcus faecalis. Kind of assay: Antibacterial activity was determined against gram positive bacteria - Enterococcus faecalis (ATCC 29212); Inactive. It counts as functional, organism-based.
Assay [2] relates to Listeria monocytogenes. The assay is described as follows: Antibacterial activity was determined against gram positive bacteria - Listeria monocytogenes (CIP 82110T); Inactive. It counts as functional, organism-based.
In assay [3] the test system is Staphylococcus aureus. Kind of assay: Antibacterial activity was determined against gram positive bacteria - Staphylococcus aureus(ATCC 9144); Inactive. The class given is functional, organism-based.
The test system of assay [4] is Streptococcus pyogenes. Kind of assay: Antibacterial activity was determined against gram positive bacteria - Streptococcus pyogenes(ATCC 19165); Inactive. It counts as functional, organism-based.
Assay [5] has as its system Enterococcus faecalis. The assay is described as follows: Antibacterial activity was determined against gram positive bacteria - Enterococcus faecalis (ATCC 29212). It counts as functional.
Assay [6] relates to Enterococcus faecalis. Kind of assay: Minimum inhibitory concentration against Enterococcus faecalis (ATCC 29212) was determined using broth dilution method. The class given is functional. On the technique in general: Broth dilution looks for growth in wells or tubes with falling amounts of substance.
Assay [7] relates to Listeria monocytogenes. The assay is described as follows: Antibacterial activity was determined against gram positive bacteria - Listeria monocytogenes (CIP 82110T). The class given is functional.
Assay [8] concerns Staphylococcus aureus. The assay is described as follows: Minimum inhibitory concentration against Staphylococcus aureus(ATCC 9144) was determined using broth dilution method. The class given is functional.
Assay [9] has as its system Streptococcus pyogenes. Kind of assay: Minimum inhibitory concentration against Streptococcus pyogenes(ATCC 19165) was determined using broth dilution method. The class given is functional.
Assay [10] relates to Staphylococcus aureus. Kind of assay: Antibacterial activity was determined against gram positive bacteria - Staphylococcus aureus(ATCC 9144). It counts as functional.
In assay [11] the test system is Streptococcus pyogenes. The assay is described as follows: Antibacterial activity was determined against gram positive bacteria - Streptococcus pyogenes(ATCC 19165). It counts as functional.
Assay [12] relates to Listeria monocytogenes. Kind of assay: Minimum inhibitory concentration against Listeria monocytogenes (CIP 82110T) was determined using broth dilution method. It counts as functional.

The MIC is the smallest concentration in the dilution series that meets the test's criterion for growth inhibition.

`COc1ccccc1/N=C(/S)C#N`: the Zone diameter result with Enterococcus faecalis [1], with Listeria monocytogenes [2], with Staphylococcus aureus [3] and in the assay with Streptococcus pyogenes [4] was “inactive” throughout.

Regarding `COC(=O)c1cc(OC)c(OC)cc1/N=C(/S)C#N`, the Zone diameter result in the assay with Enterococcus faecalis [1], in the assay on Listeria monocytogenes [2], with Staphylococcus aureus [3] and in the assay on Streptococcus pyogenes [4] was “inactive” throughout.

Regarding `COc1ccc(NC(=S)C#N)cc1`, the Zone diameter entry with Enterococcus faecalis [1], in the assay on Listeria monocytogenes [2], in the assay on Staphylococcus aureus [3] and in the assay with Streptococcus pyogenes [4] was “inactive” in each case.

Regarding `COC(=O)c1cc(OC)c(OC)cc1/N=c1\ssnc1Cl`, the Zone diameter is 14 mm in the assay with Enterococcus faecalis [5], 17 mm with Listeria monocytogenes [7], 17 mm in the assay on Staphylococcus aureus [10] and 14 mm with Streptococcus pyogenes [11]. Further, the MIC in the assay on Enterococcus faecalis [6], in the assay on Staphylococcus aureus [8], against Streptococcus pyogenes [9] and against Listeria monocytogenes [12] was 32 µg/mL (≈ 92.3 µM) each time.

Regarding `Clc1nss/c1=N\c1ccc2c(c1)OCCO2`, the Zone diameter is 10 mm in the assay on Enterococcus faecalis [5], 10 mm in the assay on Listeria monocytogenes [7], 12 mm in the assay with Staphylococcus aureus [10] and 11 mm in the assay on Streptococcus pyogenes [11]. Moreover, the MIC with Enterococcus faecalis [6], against Staphylococcus aureus [8], in the assay with Streptococcus pyogenes [9] and in the assay with Listeria monocytogenes [12] was 32 µg/mL (≈ 112 µM) each time.

For `COc1cc(C#N)c(/N=c2\ssnc2Cl)cc1OC`, the Zone diameter with Enterococcus faecalis [5] amounted to 10 mm; in the assay with Listeria monocytogenes [7] it was 10 mm; with Staphylococcus aureus [10], 10 mm; with Streptococcus pyogenes [11], 13 mm. In addition, the MIC in the assay on Enterococcus faecalis [6], in the assay with Staphylococcus aureus [8], in the assay with Streptococcus pyogenes [9] and against Listeria monocytogenes [12] was 32 µg/mL (≈ 102 µM) in each case.

With `COc1cc(NC(=S)C#N)cc(OC)c1OC`, the Zone diameter result in the assay on Enterococcus faecalis [1], in the assay on Listeria monocytogenes [2], in the assay with Staphylococcus aureus [3] and in the assay with Streptococcus pyogenes [4] was “inactive” each time.

Consider `COc1ccc(/N=c2\ssnc2Cl)cc1`, for which the Zone diameter with Enterococcus faecalis [5] came out at 14 mm; in the assay on Listeria monocytogenes [7], 15 mm; in the assay with Staphylococcus aureus [10], 17 mm; in the assay with Streptococcus pyogenes [11], 15 mm. Besides, the MIC against Enterococcus faecalis [6], in the assay with Staphylococcus aureus [8], in the assay with Streptococcus pyogenes [9] and in the assay with Listeria monocytogenes [12] was 32 µg/mL (≈ 124 µM) each time.

As for `N#CC(=S)Nc1ccc2c(c1)OCCO2`, the Zone diameter result in the assay on Enterococcus faecalis [1], in the assay on Listeria monocytogenes [2], in the assay with Staphylococcus aureus [3] and with Streptococcus pyogenes [4] was “inactive” throughout.

With `N#CC(=S)Nc1ccccc1C#N`, the Zone diameter entry with Enterococcus faecalis [1], in the assay with Listeria monocytogenes [2], in the assay with Staphylococcus aureus [3] and with Streptococcus pyogenes [4] was “inactive” in each case.

Consider `COc1ccc(NC(=S)C#N)cc1OC`, for which the Zone diameter entry in the assay with Enterococcus faecalis [1], with Listeria monocytogenes [2], with Staphylococcus aureus [3] and in the assay with Streptococcus pyogenes [4] was “inactive” throughout.

For the molecule `COc1cc(C#N)c(/N=C(/S)C#N)cc1OC`, the Zone diameter entry with Enterococcus faecalis [1], in the assay on Listeria monocytogenes [2], in the assay on Staphylococcus aureus [3] and with Streptococcus pyogenes [4] was “inactive” throughout.

For the molecule `COC(=O)c1ccccc1/N=C(/S)C#N`, the Zone diameter entry with Enterococcus faecalis [1], in the assay on Listeria monocytogenes [2], in the assay on Staphylococcus aureus [3] and with Streptococcus pyogenes [4] was “inactive” in each case.

In the case of `COc1cc(/N=c2\ssnc2Cl)cc(OC)c1OC`, the Zone diameter stood at 10 mm in the assay with Enterococcus faecalis [5], 17 mm in the assay on Listeria monocytogenes [7], 13 mm in the assay with Staphylococcus aureus [10] and 16 mm with Streptococcus pyogenes [11]. Moreover, the MIC in the assay with Enterococcus faecalis [6], in the assay on Staphylococcus aureus [8], against Streptococcus pyogenes [9] and against Listeria monocytogenes [12] was 32 µg/mL (≈ 100 µM) throughout.

On to `COc1ccc(/N=c2\ssnc2Cl)cc1OC`, for which the Zone diameter in the assay with Enterococcus faecalis [5] was determined as 13 mm; in the assay with Listeria monocytogenes [7] it was 12 mm; in the assay with Staphylococcus aureus [10] it was 13 mm; in the assay on Streptococcus pyogenes [11], 16 mm. Besides, the MIC against Enterococcus faecalis [6], against Staphylococcus aureus [8], in the assay with Streptococcus pyogenes [9] and in the assay on Listeria monocytogenes [12] was 32 µg/mL (≈ 111 µM) in each case.

With `COc1ccccc1/N=c1\ssnc1Cl`, the Zone diameter is 17 mm in the assay on Enterococcus faecalis [5], 21 mm in the assay on Listeria monocytogenes [7], 20 mm with Staphylococcus aureus [10] and 22 mm with Streptococcus pyogenes [11]. Besides, the MIC with Enterococcus faecalis [6] amounted to 16 µg/mL (≈ 61.8 µM); in the assay on Staphylococcus aureus [8] it was 32 µg/mL (≈ 124 µM); in the assay with Streptococcus pyogenes [9], 32 µg/mL (≈ 124 µM); in the assay on Listeria monocytogenes [12] it was 16 µg/mL (≈ 61.8 µM).

Take `N#CC(=S)Nc1ccccc1`: the Zone diameter entry in the assay with Enterococcus faecalis [1], with Listeria monocytogenes [2], in the assay on Staphylococcus aureus [3] and in the assay with Streptococcus pyogenes [4] was “inactive” throughout.

For the molecule `N#Cc1ccccc1/N=c1\ssnc1Cl`, the Zone diameter in the assay with Enterococcus faecalis [5] was determined as 11 mm; with Listeria monocytogenes [7], 11 mm; in the assay on Staphylococcus aureus [10], 11 mm; in the assay with Streptococcus pyogenes [11] it was 15 mm. The MIC against Enterococcus faecalis [6], in the assay on Staphylococcus aureus [8], against Streptococcus pyogenes [9] and in the assay with Listeria monocytogenes [12] was 32 µg/mL (≈ 126 µM) in each case.

`COC(=O)c1ccccc1/N=c1\ssnc1Cl`: the Zone diameter with Enterococcus faecalis [5] worked out at 16 mm; with Listeria monocytogenes [7], 17 mm; in the assay with Staphylococcus aureus [10], 18 mm; in the assay on Streptococcus pyogenes [11], 18 mm. For the same molecule, the MIC in the assay with Enterococcus faecalis [6], against Staphylococcus aureus [8], against Streptococcus pyogenes [9] and in the assay on Listeria monocytogenes [12] was 32 µg/mL (≈ 112 µM) each time.

As for `Clc1nss/c1=N\c1ccccc1`, the Zone diameter worked out at 19 mm in the assay with Enterococcus faecalis [5], 27 mm in the assay on Listeria monocytogenes [7], 29 mm in the assay on Staphylococcus aureus [10] and 26 mm with Streptococcus pyogenes [11]. For the same molecule, the MIC with Enterococcus faecalis [6] amounted to 16 µg/mL (≈ 70 µM); against Staphylococcus aureus [8], 16 µg/mL (≈ 70 µM); against Streptococcus pyogenes [9], 32 µg/mL (≈ 140 µM); against Listeria monocytogenes [12], 16 µg/mL (≈ 70 µM).
